Results reported in patent US7279473B2, “Pyrazolopyridazine derivatives” (SmithKline Beecham Corporation, priority 2001, dated 2007).

Tests used:
[1] = test system: chemotherapy-induced alopecia; experiment: Neonatal rat model of chemotherapy-induced alopecia; format: in vivo, Sprague Dawley rats; settings: compounds in 100% DMSO applied topically to the scalp prior to chemotherapy; scored at day 21
Excerpt: Animal Model for Chemoprotection
Neonatal rat model of chemotherapy-induced alopecia: Time-pregnant female Sprague Dawley rats were purchased from Charles River Breeding Laboratories. Rat pups born on the same day were randomized at birth to 15 or 16 pups/mom/cage and were housed with moms during the study period. Each experimental group consisted of either 5 or 8 rats. For the etoposide model of CIA, rat pups received etoposide (VePesid, Bristol Laboratories Oncology Products, Princeton, N.J.) 6 mg/kg, ip, at 13 days of age (23). […] Compounds were formulated in 100% DMSO and applied topically to the scalp, 50 μL per application. Pups were treated with two topical applications of compounds 10 hours and 4 hours (t=−10, −4 hours) on both days 12 and 13 prior to chemotherapy administration. Pups were separated from mom during the topical application dosing period to prevent grooming and removal of compound. […] Inhibitor efficacy data was analyzed by comparing the % of drug-treated responders and the % of vehicle-treated responders. The amount of hair present on rat scalp at day 21 were scored and averaged for each inhibitor treated rat and ranked as +, ++ and +++.

[2] = molecular target: Cyclin D1 and cyclin-dependent kinase 4 (CDK4) (Homo sapiens, UniProt P11802); experiment: CDK4 substrate phosphorylation assay (phosphorylation of GST-Rb protein, [33P]-ATP); format: biochemical; settings: read-out: CDK4 inhibition
Sequence of Cyclin D1 and cyclin-dependent kinase 4 (CDK4) (P11802 whole entry, species assumed): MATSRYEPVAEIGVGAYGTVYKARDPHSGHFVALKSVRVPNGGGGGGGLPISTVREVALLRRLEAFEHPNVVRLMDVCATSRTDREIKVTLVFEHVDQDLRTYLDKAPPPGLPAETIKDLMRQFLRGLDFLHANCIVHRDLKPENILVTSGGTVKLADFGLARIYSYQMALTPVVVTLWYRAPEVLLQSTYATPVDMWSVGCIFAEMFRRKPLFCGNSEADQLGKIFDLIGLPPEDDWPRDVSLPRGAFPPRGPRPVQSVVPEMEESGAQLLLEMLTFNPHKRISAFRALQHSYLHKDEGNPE
Sequence of Cyclin D1 and cyclin-dependent kinase 4 (CDK4) (P24385 whole entry partner, species assumed): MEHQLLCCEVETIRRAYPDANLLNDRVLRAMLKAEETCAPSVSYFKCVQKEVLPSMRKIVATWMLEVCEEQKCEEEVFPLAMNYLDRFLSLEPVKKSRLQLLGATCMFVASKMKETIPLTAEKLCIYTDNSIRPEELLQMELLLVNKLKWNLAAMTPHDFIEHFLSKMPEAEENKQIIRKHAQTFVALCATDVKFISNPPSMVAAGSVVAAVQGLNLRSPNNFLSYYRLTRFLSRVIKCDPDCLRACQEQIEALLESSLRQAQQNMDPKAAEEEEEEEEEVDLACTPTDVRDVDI
Experimental: The compounds of the present invention have valuable pharmacologic properties. Different compounds from this class are particularly effective at inhibiting CDK2 and/or CDK4 enzymes at concentrations, which range from 0.0001 to 1 μM and additionally show specificity relative to other kinases. Substrate phosphorylation assays were carried out as follows.
Cyclin D1 and cyclin-dependent kinase 4 were expressed utilizing a baculovirus expression system. The catalytic activity of CDK4 protein was assayed by measuring the phosphorylation of Rb protein. A truncated Rb protein (residues 773-928 of the native retinoblastoma protein, fused to glutathione S-transferase to facilitate purification) was used as the phosphoryl acceptor. The assay conditions were 100 mM HEPES (N-[2-hydroxyethyl]piperzine-N′-[2-ethanesulfonic acid]), pH 7.5, 0.5 μM GST-Rb protein, 1 μCi/mL [^33P]-ATP (1 nM-20 μM), 5-20 mM MgCl2, 2.5 mM EDTA, 1 mM dithiothreitol, 0.2 mg/mL bovine serum albumin, 2% (v/v) dimethyl sulfoxide (DMSO), CDK4 enzyme (5-50 nM) in a final volume of 50 μL Reactions were incubated for time periods of 10-60 min at 30° C. and terminated by the addition of 50 μL quench (1 mM ATP/100 mM EDTA, pH 7.0). Detection of protein phosphorylation was accomplished by scintillation counting following collection of protein in 96 well plates coated with Glutathione or trapping of protein onto phosphocellulose filters. Counts detected by these methodologies minus the appropriate background were assumed to be proportional to the reaction initial rates. […] IC50s were determined by a least squares fit to the equation CPM=Vmax*(1-([I]/(K+[I])))+nsb, or pIC50s were determined by a fit to the equation CPM=nsb+(Vmax−nsb)/(1+(x/10^x−pIC50)), where nsb are the background counts.

[3] = molecular target: CDK2 (Homo sapiens, UniProt P24941); experiment: CDK2 substrate phosphorylation assay (biotinylated peptide, [g-32P]ATP); format: biochemical; settings: read-out: CDK2 inhibition
Experimental: CDK2 was expressed utilizing a baculovirus expression system and was partially purified to comprise 20-80% of total protein, with no detectable competing reactions present. […] The buffer employed in enzyme assay was 100 mM HEPES pH 7.5 containing 0.1 mg/mL BSA and 5% DMSO. Inhibitors were diluted in 100% DMSO prior to addition into the assay. Detection of peptide phosphorylation was accomplished by scintillation counting following either collection of peptide onto phosphocellulose filters (for reactions stopped with acetic acid), collection of peptide in wells of 96 well plates coated with Streptavidin (Pierce) (reactions were stopped with EDTA), or addition of Avidin coated Scintillant impregnated beads (Scintillation Proximity Assays from Amersham, reactions were stopped with EDTA). […] Radioactivity was determined by liquid scintillation counting.

Row | Compound | Rank (amount of hair present on rat scalp at day 21) [1] | IC50 [2] | IC50 [3]
1 | COc1cc(Nc2nccc(-c3cnn4ncccc34)n2)cc(C(F)(F)F)c1 [Example 57] | + |  | 
2 | c1cc(Nc2nccc(-c3cnn4ncccc34)n2)cc(-c2cnco2)c1 [Example 14, N-[3-(1,3-Oxazol-5-yl)phenyl]-4-pyrazolo[1,5-b]pyridazin-3-yl-2-pyrimidinamine] | + | < 100 nM | < 100 nM
3 | CN1CCN(c2ccc(Nc3nccc(-c4cnn5ncccc45)n3)cc2Cl)CC1 [Example 23, N-[3-Chloro-4-(4-methyl-1-piperazinyl)phenyl]-4-pyrazolo[1,5-b]pyridazin-3-yl-2-pyrimidinamine] | +++ | < 100 nM | < 100 nM
4 | O=[N+]([O-])c1cccc(Nc2nccc(-c3cnn4ncccc34)n2)c1 [Example 10, N-(3-Nitrophenyl)-4-pyrazolo[1,5-b]pyridazin-3-yl-2-pyrimidinamine] |  | < 100 nM | < 100 nM
5 | O=C1CCCN1CCCNc1nccc(-c2cnn3ncccc23)n1 [Example 22, 1-{3-[(Pyrazolo[1,5-b]pyridazin-3-yl-2-pyrimidinyl)amino]propyl}-2-pyrrolidinone] |  | < 100 nM | < 100 nM
6 | FC(F)(F)c1cccc(Nc2nccc(-c3cnn4ncccc34)n2)c1 [Example 9, 4-Pyrazolo[1,5-b]pyridazin-3-yl-N-[3-(trifluoromethyl)phenyl]-2-pyrimidinamine] | ++ | < 100 nM | < 100 nM
7 | Clc1ccccc1-c1ccc2c(-c3ccnc(NC4CC4)n3)cnn2n1 [Example 42, 4-[6-(2-Chlorophenyl)pyrazolo[1,5-b]pyridazin-3-yl]-N-cyclopropyl-2-pyrimidinamine] |  | < 1000 nM | < 1000 nM
8 | Cc1cc(Nc2nccc(-c3cnn4ncccc34)n2)ccc1N1CCN(C)CC1 [Example 25, N-[3-Methyl-4-(4-methyl-1-piperazinyl)phenyl]-4-pyrazolo[1,5-b]pyridazin-3-yl-2-pyrimidinamine] |  | < 100 nM | < 100 nM
9 | c1cnn2ncc(-c3ccnc(NC4CC4)n3)c2c1 [Example 1, N-Cyclopropyl-4-pyrazolo[1,5-b]pyridazin-3-yl-2-pyrimidinamine] |  | < 100 nM | 
10 | COc1ccc2c(-c3ccnc(NC4CC4)n3)cnn2n1 [Example 36, N-Cyclopropyl-4-(6-methoxypyrazolo[1,5-b]pyridazin-3-yl)-2-pyrimidinamine] |  | < 1000 nM | < 1000 nM
11 | N#Cc1cccc(Nc2nccc(-c3cnn4ncccc34)n2)c1 [Example 7, 3-[(4-Pyrazolo[1,5-b]pyridazin-3-yl-2-pyrimidinyl)amino]benzonitrile] | +++ | < 100 nM | < 100 nM
12 | CN(C)c1ccc(Nc2nccc(-c3cnn4nc(N5CCOCC5)ccc34)n2)cc1 [Example 53, N-^1-N^1-Dimethly-N^4-{4-[6-(4-morpholinyl)pyrazolo[1,5-b]pyridazin-3-yl]-2-pyrimidinyl}-1,4-benzenediamine] |  | < 100 nM | < 1000 nM
13 | NS(=O)(=O)c1ccc(Nc2nccc(-c3cnn4ncccc34)n2)cc1 [Example 62, N-(4-aminosulfonylphenyl)-4-pyrazolo[1,5-b]pyridazin-3-yl-2-pyrimidinamine] |  |  | < 100 nM
14 | Clc1ccc(Nc2nccc(-c3cnn4ncccc34)n2)cc1 [Example 5, N-(4-Chlorophenyl)pyrazolo[1,5-b]pyridazin-3-yl-2-pyrimidinamine] |  | < 100 nM | < 100 nM
